The results in this text go back to patent US20250282798A1, “HETEROARYL-SUBSTITUTED BICYCLIC COMPOUND AND USE THEREOF” (Medshine Discovery Inc., priority 2022, published 2025).

Common to all, as to assay type: in vitro ADME
The subject of series [1] is MDR1-MDCK II cell line. The series can be described thus: Permeability evaluation in MDR1-MDCK II cells. On the procedure: (§1) Cell line: The MDR1-MDCK II cell line authorized by Piet Borst's laboratory at the Netherlands Cancer Research Institute was used in this assay as an in vitro model for the permeability evaluation assay. The cells were inoculated in a Transwell-96 well cell plate at a density of 2.3×10^5 cells/cm^2, and cultured in a carbon dioxide incubator for 4-7 days before use in the transport assay.
(§2) The administration concentration of the test sample was 2.00 μM.
(§3) Test direction and number of parallel samples: bidirectional A-B and B-A, 2 parallels
(§4) Transport buffer (TB): HBSS solution containing 10 mM HEPES (pH 7.40±0.05)
(§5) Incubation conditions: 37±1° C., 5% CO2, incubated for 150 minutes
(§6) Control compounds: Nadolol and metoprolol were used as low-permeability and high-permeability control compounds. Digoxin was used as a substrate of P-glycoprotein. The administration concentration of nadolol and metoprolol was 2.00 μM, and the administration concentration of digoxin was 10.0 μM.
(§7) After the transport assay, the integrity of the MDR1-MDCK II cell layer was assayed by the Lucifer Yellow Rejection Assay. The remaining solution in the apical and basolateral wells was removed. 75 μL of TB containing 100 μM Lucifer Yellow was added to the apical well, and 250 μL of TB was added to the basolateral well. The cell plate was incubated in a cell culture incubator at 37±1° C., 5% CO2 and saturated humidity for 30 minutes. Then, 20 μL of sample was taken from the apical well and mixed with 60 μL of TB, and 80 μL of sample was taken from the basolateral well. The relative fluorescence unit (RFU) was measured at 425/528 nm (excitation/emission) using a microplate reader.
(§8) In this assay, the sample analysis of the test samples and control compounds of nadolol, metoprolol, and digoxin was performed by liquid chromatography-tandem mass spectrometry (LC-MS/MS). The retention time of the analytes and internal standards, chromatogram acquisition, and chromatogram integration were processed using the software Analyst (Sciex, Framingham, MA, USA). The sample analysis was semi-quantitatively determined using the peak area of analyte and the peak area of internal standard.
(§9) VR is the volume of the receiver end solution (0.075 mL for side A, and 0.25 mL for side B); Area is the relative surface area of the cell monolayer (0.0804 cm2); Time is the incubation time (9000 s); C0 is the peak area ratio of the compound at the administration end; VD is the volume of the administration end (0.075 mL for side A, and 0.25 mL for side B); CD and CR are the peak area ratios of the compound at the administration end and the receiver end, respectively.

Series [2] can be described thus: Permeability evaluation in MDR1-MDCK II cells. The following applies: dog. On the procedure:
as §1, §2, §3, §4, §5, §6, §7, §8, §9

The subject of series [3] is MDR1 (P-glycoprotein). In words: Permeability evaluation in MDR1-MDCK II cells. The note with it: dog, pH 7.4, 2.00 μM, 150 minutes. On the procedure: as §1, §2, §3, §4, §5, §6, §7, §8, §9

In the case of `Cn1ccc2c(-c3ncc(Nc4ccc5c(n4)OC[C@@H]4COCCN54)c4c3CNC4=O)ccnc21` [Compound 4], in series [1] (2.00 μM, 150 minutes), the Efflux ratio stood at 4.97, the “Permeability Papp A to B” value was 5.20 10^−6 cm/s and the “Permeability Papp B to A” value is given as 25.84 10^−6 cm/s. Besides, the “Conclusion of the permeability” value in series [1] (class by Papp) is reported as “Medium (Medium permeability 1.0 < Papp < 5.5 (×10^−6 cm/s))”.

What is called Papp A→B is the apparent permeability from the apical to the basolateral side of a cell layer. As usually defined, the Papp B→A is the apparent permeability from the basolateral to the apical side of a cell layer. As usually defined, the efflux ratio is a quotient of directional permeabilities that is used to spot active efflux. Regarding `O=C1NCc2c(-c3cnc4cc(F)ccn34)ccc(Nc3ccc4c(n3)OC[C@@H]3COCCN43)c21` [Compound 8], in series [2] (pH 7.4, 2.00 μM, 150 minutes), the Papp A→B at 150 min, 2 μM came out at 1.97 ×10⁻⁶ cm/s and the Papp B→A at 150 min, 2 μM came out at 14.2 ×10⁻⁶ cm/s. Besides, in series [2] (pH 7.4, class by Papp, read-out: Conclusion of the permeability), the Papp at 150 min, 2 μM was 1 to 5.5 ×10⁻⁶ cm/s. Besides, in series [3], the efflux ratio at 150 min, 2 μM turned out to be 7.19.
